For this assay, the species on record is Ovis aries. Briefly: Effect of compound (400 uM) on biosynthesis of prostaglandins from tritiated arachidonic acid was evaluated in vitro; NE = No effect at the given concentration. It counts as functional.

The structures appear in SMILES notation.

On to `CCc1cccc2c3c([nH]c12)C(CC)(CC(=O)O)OCC3` (single isomer, unassigned; (-)), for which the Activity result is “No effect”.

(Values after ChEMBL document CHEMBL1122422, “Resolution of etodolac and antiinflammatory and prostaglandin synthetase inhibiting properties of the enantiomers” (J Med Chem, 1983).)
